In patent US9714239B2, “N-phenyl-lactam derivatives capable of stimulating neurogenesis and their use in the treatment of neurological disorders” (Hoffmann-La Roche Inc., priority 2014, dated 2017):

What follows are molecules tested on human embryonic stem cell derived neural stem cells (NSCs) (assay: Neurogenesis assay: neural stem cell proliferation assay). Conditions: 96 h, compound concentration at which 150% activity of control (100%) is reached, increase in cells based on ATP levels (CellTiterGlo), 4 days incubation, dose response 8 μM to 8 nM.
Protocol: Neural Stem Cell Proliferation Assay
Neurogenic properties of small molecules are determined based on the proliferation of human embryonic stem cell derived neural stem cells (NSCs) which were derived via a dual smad inhibition as previously described (Chambers, S. M., et al., Highly efficient neural conversion of human ES and iPS cells by dual inhibition of SMAD signaling, Nature biotechnology, 2009 27(3): p. 275-80.).
Compounds response is measured by the increase in cells based on ATP levels (Promega:CellTiterGlo®) after an incubation period of 4 days. NSCs are thawed and expanded over 3 passages. On the 14th day, NSCs are seeded in Polyornithin/Laminin coated 384 well plates at a cell density of 21,000 cells/cm^2 in a media volume of 38 μl.
4 hours after cell seeding, compound solutions are added at a volume of 2 μl. Stock solutions of the compounds (water, 5% DMSO) are diluted to obtain a dose response (11 points, dilution factor is 2), ranging from 8 μM to 8 nM. Controls are run to consistently determine the neurogenic properties of the cells:
Negative (neutral) control is cell culture Media (final DMSO concentration: 0.25%).
1. cell culture Media+100 ng/ml FGF2 (final DMSO concentration: 0.1%)
2. cell culture Media+20 ng/ml EGF (final DMSO concentration: 0.1%)
3. cell culture Media+100 ng/ml Wnt3a (final DMSO concentration: 0.1%)
After 4 days incubation at 37° C., 5% CO2, the amount of ATP per well is quantified. The ATP concentration is proportional to the cell number. ATP is quantified by using the Promega CellTiterGlo® kit. The CellTiterGlo® reagents contain a cell lysis buffer, a thermo stable luciferase (UltraGlo™ recombinant luciferase), magnesium and luciferin. Luciferin reacts with ATP producing oxyluciferin, AMP and light. The luminescence signal is proportional to the ATP content.
The value of negative (neutral) control is determined for each assay plate by taking the average of 16 negative control wells. The neurogenic compound response is calculated for each compound as (compound/Negative Control)*100. The values of EC150 from the dose response curve are determined for each test compound. The EC150 is the compound concentration at which 150% activity of control (100%) is reached.
Molecule COc1cc(N2CCN(Cc3ccccc3Cl)C2=O)ccc1-c1cn[nH]c1 [Example 10, 1-[(2-Chlorophenyl)methyl]-3-[3-methoxy-4-(1H-pyrazol-4-yl)phenyl]imidazolidin-2-one] has an EC (150% of control) of 0.27 µM.
COc1cccc(C2CCN(c3ccc(-c4cn[nH]c4)cc3)C2=O)c1 (centres unmarked) [Example 14, 3-(3-Methoxyphenyl)-1-[4-(1H-pyrazol-4-yl)phenyl]pyrrolidin-2-one] gave an EC (150% of control) of 0.0405 µM.
COc1cccc(CN2CCN(c3ccc(-c4cn[nH]c4)c(Cl)c3)C2=O)c1 [Example 29, 1-[3-Chloro-4-(1H-pyrazol-4-yl)phenyl]-3-[(3-methoxyphenyl)methyl]imidazolidin-2-one] was tested, and the EC (150% of control) was 0.366 µM.
CCOc1cc(N2CCN(Cc3cccc(OC)c3)C2=O)ccc1-c1cn[nH]c1 [Example 32, 1-[3-Ethoxy-4-(1H-pyrazol-4-yl)phenyl]-3-[(3-methoxyphenyl)methyl]imidazolidin-2-one] showed an EC (150% of control) of 0.835 µM.
With O=C1C(c2ccccc2)CCN1c1ccc(-c2cn[nH]c2)cc1 (centres unmarked) [Example 13, 3-Phenyl-1-[4-(1H-pyrazol-4-yl)phenyl]pyrrolidin-2-one] the EC (150% of control) was 0.205 µM.
In the case of COc1cccc(CN2CCN(c3ccc(-c4cn[nH]c4)c(F)c3)C2=O)c1 [Example 31, 1-[3-Fluoro-4-(1H-pyrazol-4-yl)phenyl]-3-[(3-methoxyphenyl)methyl]imidazolidin-2-one], the EC (150% of control) is reported as 0.0157 µM.
With O=C1N(Cc2ccccc2F)CCN1c1ccc(-c2cnco2)cc1 [Example 73, 1-[(2-Fluorophenyl)methyl]-3-[4-(1,3-oxazol-5-yl)phenyl]imidazolidin-2-one] the EC (150% of control) was 1.49 µM.
Molecule COc1cc(N2CCC(c3ccccc3)C2=O)ccc1-c1cn[nH]c1 (centres unmarked) [Example 12, 1-[3-Methoxy-4-(1H-pyrazol-4-yl)phenyl]-3-phenyl-pyrrolidin-2-one] has an EC (150% of control) of 0.0414 µM.
